In patent US20060035869A1, “Inhibitors of epoxide hydrolases for the treatment of hypertension” (THE REGENTS OF THE UNIVERSITY OF CALIFORNIA OFFICE OF …, priority 1999, published 2006):
Read-outs that look alike come from different tables or passages of the source.

Experiments:
Rat mEH = target: T1, Rat mEH (Rattus norvegicus, UniProt P07687); assay: Inhibition of mammalian microsomal EH, 3H-cis-stilbene oxide assay; type: biochemical
T1 sequence (P07687 1-455): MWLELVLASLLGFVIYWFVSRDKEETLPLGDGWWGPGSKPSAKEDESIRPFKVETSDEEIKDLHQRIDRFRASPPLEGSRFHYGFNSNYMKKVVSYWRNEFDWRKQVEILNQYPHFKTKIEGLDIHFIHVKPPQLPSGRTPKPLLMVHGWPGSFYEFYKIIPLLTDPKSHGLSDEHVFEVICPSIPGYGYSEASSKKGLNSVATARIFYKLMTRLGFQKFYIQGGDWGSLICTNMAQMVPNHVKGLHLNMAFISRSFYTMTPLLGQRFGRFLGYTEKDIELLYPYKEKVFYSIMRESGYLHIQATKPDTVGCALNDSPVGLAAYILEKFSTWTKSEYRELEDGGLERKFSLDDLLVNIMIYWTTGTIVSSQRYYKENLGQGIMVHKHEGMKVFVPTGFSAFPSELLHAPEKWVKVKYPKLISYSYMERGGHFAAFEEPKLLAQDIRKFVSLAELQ
Procedure: (§1) The mixture was incubated at 30° C. for 5 minutes. […] Assays were performed in quadruplicate.

mouse sEH = target: T2, mouse sEH (Mus musculus, UniProt P34914); assay: Inhibition of recombinant mouse soluble EH, spectrophotometric NEP2C assay; type: biochemical
T2 construct: made in house; host or cells: baculovirus expression system (insect cells)
T2 sequence (P34914 1-554): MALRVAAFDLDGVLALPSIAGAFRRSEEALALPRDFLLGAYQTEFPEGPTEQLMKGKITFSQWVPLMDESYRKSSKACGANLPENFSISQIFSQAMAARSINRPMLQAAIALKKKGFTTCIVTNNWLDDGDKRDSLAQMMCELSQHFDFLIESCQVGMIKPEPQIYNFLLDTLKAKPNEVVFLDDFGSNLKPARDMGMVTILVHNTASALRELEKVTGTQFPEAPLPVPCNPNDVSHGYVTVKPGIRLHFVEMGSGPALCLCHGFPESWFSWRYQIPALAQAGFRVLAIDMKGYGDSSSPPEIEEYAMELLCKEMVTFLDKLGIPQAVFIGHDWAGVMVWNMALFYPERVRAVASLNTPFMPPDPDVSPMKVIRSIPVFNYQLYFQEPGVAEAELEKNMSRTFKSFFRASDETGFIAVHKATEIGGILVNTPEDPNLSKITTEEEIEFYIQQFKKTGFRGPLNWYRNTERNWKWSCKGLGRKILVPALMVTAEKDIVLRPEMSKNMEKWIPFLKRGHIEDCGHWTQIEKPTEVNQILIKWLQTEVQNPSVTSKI
Procedure: (§2) Recombinant mouse sEH (MsEH) and human sEH (HsEH) were produced in a baculovirus expression system as previously reported. […] The expressed proteins were purified from cell lysate by affinity chromatography. […] Protein concentration was quantified using the Pierce BCA assay using bovine serum albumin as the calibrating standard.
as §1

human sEH = target: T3, human sEH (Homo sapiens, UniProt P34913); assay: Inhibition of recombinant human soluble EH, spectrophotometric NEP2C assay; type: biochemical; details: recombinant enzyme, NEP2C 40 μM, 30° C., pH 7.4
T3 construct: made in house; host or cells: baculovirus expression system (insect cells)
T3 sequence (P34913 1-555): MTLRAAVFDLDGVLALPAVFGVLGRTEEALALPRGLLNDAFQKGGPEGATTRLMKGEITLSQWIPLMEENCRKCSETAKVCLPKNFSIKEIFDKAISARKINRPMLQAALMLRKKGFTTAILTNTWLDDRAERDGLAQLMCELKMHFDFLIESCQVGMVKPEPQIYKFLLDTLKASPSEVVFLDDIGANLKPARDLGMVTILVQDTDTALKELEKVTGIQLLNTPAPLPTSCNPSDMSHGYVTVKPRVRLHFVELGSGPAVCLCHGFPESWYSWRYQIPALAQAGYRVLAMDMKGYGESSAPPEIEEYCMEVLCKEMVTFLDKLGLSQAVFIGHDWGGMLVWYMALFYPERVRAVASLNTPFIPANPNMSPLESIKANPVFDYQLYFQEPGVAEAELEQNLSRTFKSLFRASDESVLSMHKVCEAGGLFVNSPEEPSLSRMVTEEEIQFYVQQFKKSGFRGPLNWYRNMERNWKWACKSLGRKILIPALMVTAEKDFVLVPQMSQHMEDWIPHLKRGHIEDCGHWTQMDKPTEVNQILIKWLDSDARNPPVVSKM
Procedure: as §2, §1

M secta mEH = target: T4, M secta mEH (Manduca sexta, UniProt Q25489); assay: Inhibition of recombinant insect microsomal EH; type: biochemical
T4 sequence (Q25489 1-462): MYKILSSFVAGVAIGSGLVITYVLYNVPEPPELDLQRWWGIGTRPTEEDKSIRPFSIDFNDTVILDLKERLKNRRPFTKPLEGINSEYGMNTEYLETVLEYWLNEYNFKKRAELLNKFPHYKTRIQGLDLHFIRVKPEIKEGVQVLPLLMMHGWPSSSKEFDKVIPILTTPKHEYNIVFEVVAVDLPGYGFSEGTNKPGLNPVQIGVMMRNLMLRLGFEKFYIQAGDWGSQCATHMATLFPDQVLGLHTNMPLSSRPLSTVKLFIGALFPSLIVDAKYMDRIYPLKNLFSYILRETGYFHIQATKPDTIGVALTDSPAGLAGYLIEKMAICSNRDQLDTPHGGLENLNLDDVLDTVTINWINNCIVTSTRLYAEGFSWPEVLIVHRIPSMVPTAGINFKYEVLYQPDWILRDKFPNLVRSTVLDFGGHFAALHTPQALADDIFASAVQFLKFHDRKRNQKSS

[1] = tested on: leukotoxin/isoleukotoxin induced death; assay: Protection of mice against leukotoxin/isoleukotoxin induced death; type: in vivo, mouse; details: Swiss Webster mice, 400 mg/kg i.p. in corn oil 30 minutes before leukotoxin/isoleukotoxin methyl esters 700 mg/kg i.v.
Procedure: Male Swiss Webster mice (25-28 g) were purchased from Simonsen, Gilroy, Calif. The animals had free access to water and food. […] After 30 minutes of the pretreatment, the mice were treated intravenously through the tail vein with a 1:1 mixture of leukotoxin/isoleukotoxin methyl esters in ethanol (700 mg/kg, 1.0 ml/kg).
The mice died of respiratory distress after exposure to leukotoxin/isoleukotoxin. The lethal reactions took place sequentially with accelerated breathing, opening of the mouth to assist breathing, and bloody fluid running from the nose.

[2] = recombinant enzyme, NEP2C 40 μM, 30° C., pH 7.4, read-out: Mouse sEH IC50

Row | SMILES | IC50 (Rat mEH) [µM] | IC50 (human sEH) [µM] | also measured
1 | [O-][S+](Cc1ccccc1)Cc1ccccc1 [Compound 161] | > 500 | 289 ± 7 | IC50 (mouse sEH): 156 ± 3 µM
2 | CCCCCCCCCCCCNC(=O)NCCF [Compound 238] | 9.9 ± 0.2 | 57 ± 1 | IC50 (mouse sEH; [2]): 50 ± 5 µM
3 | CCCCCCCCCCNC(=O)NC [Compound 17] | – | – | IC50 (M secta mEH): 28 ± 2 µM
4 | O=C(NC1CCCCC1)NC1CCCCC1 [Compound 2, N,N′-dicyclohexylurea] | > 500 | – | animal death induced by leukotoxin/isoleukotoxin [1]: either blocked the animal death induced by leukotoxin/isoleukotoxin or lengthened the lives of the mice
5 | CCCCCCCCCCNC(=O)NCC [Compound 19] | – | – | IC50 (M secta mEH): 4.8 ± 0.4 µM
6 | O=C(NC1CCCCC1)SC1CCCCC1 [Compound 11] | – | 7.5 ± 0.4 | IC50 (mouse sEH): 3.8 ± 0.01 µM
7 | C(=NC1CCCCC1)=NC1CCCCC1 [Compound 1, dicyclohexylcarbodiimide] | – | – | effect of time on the inhibition of mouse sEH (mouse sEH; FIG. 1): increased with the time
8 | [H]/N=C(\N/C(=N/[H])NCCCCCCNC(=N)NC(=N)Nc1ccc(Cl)cc1)Nc1ccc(Cl)cc1 [Compound 204] | – | 49 ± 7 | IC50 (mouse sEH; [2]): > 250 µM
9 | CNC(=O)Nc1ccc(Cl)c(Cl)c1 [Compound 32] | > 500 | 47 ± 2 | IC50 (mouse sEH; [2]): 108 ± 4 µM
10 | CCCCCCCCCCNC(=O)Nc1cccc(Cl)c1 [Compound 172] | > 500 | – | –
11 | O=C(NC1CCCCCCC1)NC1CCCCC1 [Compound 58] | > 500 | – | IC50 (M secta mEH): 3.9 ± 0.4 µM
12 | S=C(NC1CCCCC1)NC1CCCCC1 [Compound 12] | – | 20 ± 1 | IC50 (mouse sEH; [2]): 99 ± 5 µM
13 | CCCCCCCCCCNC(=O)NCC [Compound 28] | 8.3 ± 0.4 | 48 ± 3 | IC50 (mouse sEH; [2]): 5.8 ± 0.4 µM

Continued, in another order:

Row | IC50 (Rat mEH) [µM] | SMILES | IC50 (human sEH) [µM] | also measured
14 | > 500 | O=C(NCC1CCCCC1)Nc1ccc2ccccc2c1 [Compound 169] | – | –
15 | 2.67 ± 0.07 | CCCCCCCCCCN [Compound 303] | > 500 | IC50 (mouse sEH; [2]): > 500 µM
16 | > 500 | O=C(NCC1CCCCC1)NC1CCCCC1 [Compound 57] | – | –
17 | > 500 | O=C(NCc1ccc(Cl)cc1)NC1CCCCC1 [Compound 193] | – | –
18 | > 500 | CC1CCC(C(C)C)C(OC(=O)NC2CCCCC2)C1 (stereo not shown) [Compound 225] | 1.05 ± 0.03 | –
19 | > 500 | O=C(Nc1ccc(Oc2ccccc2)cc1)NC1CCCCC1 [Compound 140] | – | –
20 | > 500 | CCCCCCCCNC(=O)NC1CCCCC1 [Compound 168] | – | –
21 | > 500 | CC(C)c1ccc(NC(=O)NCC2CCCCC2)cc1 [Compound 180] | – | –
22 | 73 ± 1 | CCCCCCCCNC(N)=O [Compound 101] | 5.5 ± 0.1 | IC50 (mouse sEH; [2]): 1.04 ± 0.02 µM
23 | > 500 | O=C(NCCCc1ccccc1)NC1CCCCC1 [Compound 104] | – | –
24 | > 500 | O=C(NCC1CCCCC1)Nc1cccc(Cl)c1 [Compound 179] | – | –
25 | > 500 | CCOC(CCCNC(=O)Nc1cccc(Cl)c1)OCC [Compound 167] | – | –
